# Calls of active or inactive are those of the source. No cut-off for these calls is given here.
# Experiments:
# HUVEC [1] = assay: Anti-angiogenesis activity in HUVEC cells assessed as disruption of capillary tube structure at 1.5 to 6 nM measured after 6 hrs by contrast microscopy based analysis; format: functional, cell-based; details: Homo sapiens, dose 1.5-6 nM
# Cell membrane [2] = assay: Induction of mitochondrial membrane depolarization in human K562 cells assessed as decrease in red fluorescence intensity at incubated for 48 hrs by JC-1 staining based flow cytometry; format: cell membranes; details: dose 1.5-6 nM
# [3] = Toxicity in mouse assessed as effect on liver at 20 mg/kg by H and E staining based microscopic analysis; format: organism-based; details: in vivo
# K562 [4] = assay: Induction of cell cycle arrest in human K562 cells assessed as accumulation of cells at G1 phase at 1.5 nM incubated overnight by PI staining based flow cytometry analysis (reference value: 78.45%); format: functional
# K562 [5] = assay: Induction of ROS generation in human K562 cells incubated for 24 hrs by DCFH-DA staining based assay; format: functional, cell-based; details: dose 1.5-6 nM
# [6] = Metabolic stability in mouse liver microsomes assessed as intrinsic clearance at 100 uM measure upto 60 mins in presence of NADPH by LC-MS/MS analysis; format: ADME, Microsome; details: 1 h
# K562 [7] = assay: Induction of cell cycle arrest in human K562 cells assessed as accumulation of cells at S phase at 6 nM incubated overnight by PI staining based flow cytometry analysis (reference value: 15.98%); format: functional
# K562 [8] = assay: Induction of cell cycle arrest in human K562 cells assessed as accumulation of cells at G2/M phase at 6 nM incubated overnight by PI staining based flow cytometry analysis (reference value: 5.57%); format: functional
# HUVEC [9] = assay: Anti-angiogenesis activity in HUVEC cells assessed as reduction in […] at 400 nM measured after 24 hrs by wound healing assay relative to control; format: functional, Homo sapiens; set-up: scale not given: the % may be the effect or the level left
# K562 [10] = assay: Induction of apoptosis in human K562 cells assessed as downregulation of bcl-xl level at upto 6 nM measured after 48 hrs by Western blot analysis; format: functional, cell-based
# A549/TR = assay: Antiproliferative activity against human A549/Taxol cells assessed as inhibition of cell growth measured after 72 hrs by MTT assay; format: functional, cell-based
# Tubulin = assay: (§1) Inhibition of tubulin polymerization (unknown origin) preincubated for 5 mins and measured every 5 mins for 60 mins by absorbance based analysis; format: protein-complex assay, Homo sapiens
# Tubulin (Homo sapiens) = Tubulin (Homo sapiens) (UniProt P68371+Q9H4B7+P0DPH7+P68366+Q13509+Q71U36+P04350+Q3ZCM7+P07437+P68363+Q9BQE3+Q6PEY2+Q13885+Q9BVA1+Q9BUF5); assay: as §1; format: protein-complex assay; details: dose 5-10 µM, time 65.0 min
# Cell membrane [11] = assay: Induction of mitochondrial membrane depolarization in human K562 cells assessed as increase in green fluorescence intensity at incubated for 48 hrs by JC-1 staining based flow cytometry; format: cell membranes; details: dose 1.5-6 nM
# [12] = Toxicity in mouse assessed as effect on body weight loss at 20 mg/kg, iv administered once daily for 3 weeks; format: organism-based; details: in vivo, 504 h
# H22 = assay: Antitumor activity against mouse H22 cells allografted in mouse model assessed as tumor growth inhibition at 20 mg/kg,iv administered once daily for 3 weeks relative to control; format: functional; details: H22, 504 h, read-out: TGI
# MDA-MB-231 = assay: Antiproliferative activity against human MDA-MB-231 cells assessed as inhibition of cell growth measured after 72 hrs by MTT assay; format: functional, cell-based; details: MDA-MB-231, 72 h
smiles,measurement,setting,value
CCn1ccc2cc(N3CCC(=O)c4c3cc(OC)c(OC)c4OC)ccc21,Activity,HUVEC [1],Active
same,Activity,Cell membrane [2],Dose-Dependent Effect
same,Activity,[3],Non-Toxic
same,Activity,K562 [4],66.8%
same,Activity,K562 [5],Dose-Dependent Effect
same,CLH,[6],129 µL/min/mg
same,Activity,K562 [7],30.18%
same,Activity,K562 [8],22%
same,Activity,HUVEC [9],<50%
same,Activity,K562 [10],Active
same,IC50,A549/TR,0.043 µM
same,IC50,Tubulin,3.06 µM
same,inhibition,Tubulin (Homo sapiens),Dose-Dependent Effect
same,Activity,Cell membrane [11],Dose-Dependent Effect
same,Activity,[12],Non-Toxic
same,inhibition in vivo at 20 mg/kg,H22,63.3%
same,IC50,MDA-MB-231,0.024 µM
